According to patent US20260085062A1, “NOVEL COMPOUNDS AS CK2 INHIBITORS” (Cambridge Enterprise Limited, priority 2022, published 2026):

Legend:
[1] = biological target: T1, CK2α (Homo sapiens, UniProt P68400); test: Biochemical assay for inhibitors of CK2α kinase activity (ADP-Glo); conditions: 0.2 nM CK2α, 50 μM peptide substrate, 15 μM ATP, read-out: Assay 1: CK2α Enzyme IC50
T1 construct: CK2α (residues 2-329) was produced in Escherichia coli BL21 (DE3) for kinase activity screening; His6 (N, cleaved yes); made in house; host or cells: Escherichia coli BL21 (DE3)
T1 sequence (P68400 2-329): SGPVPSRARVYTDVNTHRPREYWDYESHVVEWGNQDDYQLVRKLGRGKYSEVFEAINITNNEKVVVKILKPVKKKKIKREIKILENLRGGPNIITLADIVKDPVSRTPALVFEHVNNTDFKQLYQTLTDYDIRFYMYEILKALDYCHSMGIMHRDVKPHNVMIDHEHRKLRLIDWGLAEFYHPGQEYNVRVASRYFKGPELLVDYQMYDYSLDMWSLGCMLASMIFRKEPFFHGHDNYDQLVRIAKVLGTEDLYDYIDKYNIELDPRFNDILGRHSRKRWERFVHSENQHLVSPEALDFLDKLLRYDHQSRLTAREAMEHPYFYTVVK

[2] = biological target: T2, CLK2 (Homo sapiens, UniProt P49760); test: Biochemical assay for inhibitors of CLK2 kinase activity (ADP-Glo); conditions: 20 nM CLK2, 50 μM peptide substrate, 100 μM ATP, read-out: Assay 2: CLK2 Enzyme IC50
T2 construct: purchased Carna Biosciences 04-127
T2 sequence (P49760 whole entry): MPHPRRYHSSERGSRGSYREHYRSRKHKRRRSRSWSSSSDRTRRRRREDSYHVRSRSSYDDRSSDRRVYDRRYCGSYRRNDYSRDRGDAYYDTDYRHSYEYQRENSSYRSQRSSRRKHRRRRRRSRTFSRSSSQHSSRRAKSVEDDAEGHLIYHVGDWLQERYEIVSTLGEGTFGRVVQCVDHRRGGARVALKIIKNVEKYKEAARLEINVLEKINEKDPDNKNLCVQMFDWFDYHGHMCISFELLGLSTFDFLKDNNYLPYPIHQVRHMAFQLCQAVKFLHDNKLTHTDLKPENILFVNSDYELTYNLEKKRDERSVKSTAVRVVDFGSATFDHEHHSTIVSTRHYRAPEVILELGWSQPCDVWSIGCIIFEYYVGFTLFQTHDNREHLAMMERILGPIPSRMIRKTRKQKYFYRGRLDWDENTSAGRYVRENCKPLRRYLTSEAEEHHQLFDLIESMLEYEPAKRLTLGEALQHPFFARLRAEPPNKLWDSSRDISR

[3] = biological target: T3, intracellular CK2α (Homo sapiens, UniProt P19784); test: Cell-based NanoBRET assay for inhibitor binding to intracellular CK2α; conditions: HCT116 cells transiently transfected with CSNK2A2-NanoLuc fusion vector; Tracer K-5; 2 h; read-out: Assay 3: NanoBRET ™ assay for binding to intracellular CK2α
T3 construct: host or cells: HCT116 (ATCC CCL-247)
T3 sequence (P19784 whole entry, the tested form may be a part): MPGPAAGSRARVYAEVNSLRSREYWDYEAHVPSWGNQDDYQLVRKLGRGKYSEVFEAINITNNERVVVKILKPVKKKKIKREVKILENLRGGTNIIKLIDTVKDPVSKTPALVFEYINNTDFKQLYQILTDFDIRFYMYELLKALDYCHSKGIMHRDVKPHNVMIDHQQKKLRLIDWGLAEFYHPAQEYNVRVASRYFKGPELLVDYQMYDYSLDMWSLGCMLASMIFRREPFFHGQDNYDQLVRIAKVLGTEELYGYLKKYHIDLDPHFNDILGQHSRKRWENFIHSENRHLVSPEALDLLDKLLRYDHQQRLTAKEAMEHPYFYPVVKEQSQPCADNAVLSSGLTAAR
How it was run: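 Apparent affinity came from BRET ratio (acceptor/donor ×1,000), with donor read at 450 nm and acceptor at 610 or 630 nm. Compounds competed off a tracer added at fixed concentration to cells carrying a NanoLuc-CK2α fusion.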

IC50 [1] [nM] | IC50 [2] [nM] | IC50 [3] [nM] | SMILES
104 | 3470 | 176 | O=C(CCNCc1ccc(-c2ccccc2)c(Cl)c1)NCCCNc1cccc2[nH]ncc12 [Example 61, N-(3-((1H-indazol-4-yl)amino)propyl)-3-(((2-chloro-[1,1′-biphenyl]-4-yl)methyl)amino)propenamide]
205 | 633 | 14000 | OCc1cc(CNCCCCOC2CN(c3cc(-c4ccnnc4)cc4[nH]ncc34)C2)cc(C(F)(F)F)c1 [Example 112, (3-(((4-((1-(6-(pyridazin-4-yl)-1H-indazol-4-yl)azetidin-3-yl)oxy)butyl)amino)methyl)-5-(trifluoromethyl)phenyl)methanol]
56.2 | 1250 | 11700 | N#Cc1nncn1-c1cc(NCCCNC(=O)CCNCc2ccc(OC(F)(F)F)c(Cl)c2)c2cn[nH]c2c1 [Example 177, 3-((3-chloro-4-(trifluoromethoxy)benzyl)amino)-N-(3-((6-(3-cyano-4H-1,2,4-triazol-4-yl)-1H-indazol-4-yl)amino)propyl)propanamide]
0.95 | 56.4 | 322 | Cc1n[nH]cc1-c1cc(NCCCNC(=O)CCNCc2ccc(-c3ccccc3)c(Cl)c2)c2cn[nH]c2c1 [Example 27, 3-(((2-chloro-[1,1′-biphenyl]-4-yl)methyl)amino)-N-(3-((6-(3-methyl-1H-pyrazol-4-yl)-1H-indazol-4-yl)amino)propyl)propanamide]
28.1 | 146 | 3000 | N#CCc1cc(Cl)cc(CNCCCCOC2CN(c3cc(-n4cnnc4)cc4[nH]ncc34)C2)c1 [Example 131, 2-(3-(((4-((1-(6-(4H-1,2,4-triazol-4-yl)-1H-indazol-4-yl)azetidin-3-yl)oxy)butyl)amino)methyl)-5-chlorophenyl)acetonitrile]
17.5 | 112 | > 50000 | O=C(CCNCc1cccc(CO)c1)NCCCNc1cc(-n2cnnc2)cc2[nH]ncc12 [Example 35, N-(3-((6-(4H-1,2,4-triazol-4-yl)-1H-indazol-4-yl)amino)propyl)-3-((3-(hydroxymethyl)benzyl)amino)propanamide]
0.64 | 81.2 | 208 | O=C(CCNCc1ccc(OC(F)(F)F)c(Cl)c1)NCCCNc1cc(-c2cn[nH]c(=O)c2)cc2[nH]ncc12 [Example 168, 3-((3-chloro-4-(trifluoromethoxy)benzyl)amino)-N-(3-((6-(6-oxo-1,6-dihydropyridazin-4-yl)-1H-indazol-4-yl)amino)propyl)propanamide]
384 | 2720 | 20600 | OCc1cc(F)cc(CNCCCCOC2CN(c3cc(-c4ccnnc4)cc4[nH]ncc34)C2)c1 [Example 110, (3-fluoro-5-(((4-((1-(6-(pyridazin-4-yl)-1H-indazol-4-yl)azetidin-3-yl)oxy)butyl)amino)methyl)phenyl)methanol]
45.3 | 23300 | 4900 | Fc1cc(CNCCCCOCCNCc2cc(-n3cnnc3)cc3[nH]ncc23)cc(F)c1OC(F)(F)F [Example 171, 4-(2-(((6-(4H-1,2,4-triazol-4-yl)-1H-indazol-4-yl)methyl)amino)ethoxy)-N-(3,5-difluoro-4-(trifluoromethoxy)benzyl)butan-1-amine]

The next lines start with the compound.

SMILES | IC50 [1] [nM] | IC50 [2] [nM] | IC50 [3] [nM]
Clc1cc(CNCCc2cn(CCNc3cc(-n4cnnc4)cc4[nH]ncc34)nn2)ccc1-c1ccccc1 [Example 14, N-(2-(4-(2-(((2-chloro-[1,1′-biphenyl]-4-yl)methyl)amino)ethyl)-1H-1,2,3-triazol-1-yl)ethyl)-6-(4H-1,2,4-triazol-4-yl)-1H-indazol-4-amine] | 1.6 | 322 | 2120
O=C(CCNCc1ccc(-c2ccccc2)c(Cl)c1)NCCC(=O)Nc1cc(-n2cnnc2)cc2[nH]ncc12 [Example 12, N-(6-(4H-1,2,4-triazol-4-yl)-1H-indazol-4-yl)-3-(3-(((2-chloro-[1,1′-biphenyl]-4-yl)methyl)amino)propanamido)propanamide] | 0.6 | 612 | 6830
c1cc2[nH]c(CNCCCCOCCNc3cc(-n4cnnc4)cc4[nH]ncc34)cc2cc1OC1CCC1 [Example 53, N-(2-(4-(((5-cyclobutoxy-1H-indol-2-yl)methyl)amino)butoxy)ethyl)-6-(4H-1,2,4-triazol-4-yl)-1H-indazol-4-amine] | 0.33 | 119 | 159
O=C(O)c1cc(NCCOCCCCNCc2cc3cc(C(F)(F)F)ccc3[nH]2)c2cn[nH]c2c1 [Example 85, 4-((2-(4-(((5-(trifluoromethyl)-1H-indol-2-yl)methyl)amino)butoxy)ethyl)amino)-1H-indazole-6-carboxylic acid] | 743 | 37100 | > 50000
N#Cc1cc(CNCCC(=O)NCCCNc2cc(-n3cnnc3)cc3[nH]ncc23)ccc1OC1CCC1 [Example 39, N-(3-((6-(4H-1,2,4-triazol-4-yl)-1H-indazol-4-yl)amino)propyl)-3-((3-cyano-4-cyclobutoxybenzyl)amino)propanamide] | 0.28 | 63.3 | 2080
O=C(CCNCc1ccc(-c2ccccc2)c(Cl)c1)NCCCNc1cc(-c2ccncc2)cc2[nH]ncc12 [Example 1, 3-(((2-Chloro-[1,1′-biphenyl]-4-yl)methyl)amino)-N-(3-((6-(pyridin-4-yl)-1H-indazol-4-yl)amino)propyl)propanamide] | 1.38 | 226 | 124
O=C(CCNCc1ccc(-c2ccccc2)c(Cl)c1)NCCCNc1cc(-n2cnnc2)cc2[nH]ncc12 [Example 11, N-(3-((6-(4H-1,2,4-triazol-4-yl)-1H-indazol-4-yl)amino)propyl)-3-(((2-chloro-[1,1′-biphenyl]-4-yl)methyl)amino)propanamide] | 0.29 | 31.7 | 249
Cn1c(CNCCCCOCCNc2cc(-n3cnnc3)cc3[nH]ncc23)cc2ccc(Cl)cc21 [Example 50, N-(2-(4-(((6-chloro-1-methyl-1H-indol-2-yl)methyl)amino)butoxy)ethyl)-6-(4H-1,2,4-triazol-4-yl)-1H-indazol-4-amine] | 2.2 | 94 | 153
FC(F)(F)Oc1ccc(CNCCCCOCCNc2cc(-n3cnnc3)cc3[nH]nnc23)cc1Cl [Example 126, N-(2-(4-((3-chloro-4-(trifluoromethoxy)benzyl)amino)butoxy)ethyl)-6-(4H-1,2,4-triazol-4-yl)-1H-benzo[d][1,2,3]triazol-4-amine] | 11.1 | 18100 | 3630
Clc1ccc2nc(CNCCCCOCCNc3cc(-n4cnnc4)cc4[nH]ncc34)[nH]c2c1 [Example 23, N-(2-(4-(((6-chloro-1H-benzo[d]imidazol-2-yl)methyl)amino)butoxy)ethyl)-6-(4H-1,2,4-triazol-4-yl)-1H-indazol-4-amine] | 19.9 | 86.1 | 17500
O=C(CCNCc1ccc(OC2CCC2)c(CO)c1)NCCCNc1cc(-n2cnnc2)cc2[nH]ncc12 [Example 41, N-(3-((6-(4H-1,2,4-triazol-4-yl)-1H-indazol-4-yl)amino)propyl)-3-((4-cyclobutoxy-3-(hydroxymethyl)benzyl)amino)propanamide] | 0.58 | 78.1 | 7620
